The subject of one assay is OVCAR3 p-RB. The assay is described as follows: pRB ICW Assay in OVCAR3 Cells. In kind it is cell-based. Particulars: Homo sapiens, OVCAR-3, incubated with compound for 2 hours. The essentials:
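In-Cell Western on OVCAR3: phospho-RB antibody signal with DRAQ5 counterstain read at 700 and 800 nm after fixation. Compounds were applied for 2 h at 37° C. as 9-point ½-log dilutions in duplicate; 10 μM reference compound defined full inhibition.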

The target of another assay is T1, CDK2/Cyclin E2 (Homo sapiens, UniProt P24941).
T1 construct: Recombinant protein complex CDK2/Cyclin E2, expressed from insect cell, was purchased from ProQinase
The assay is described as follows: CDK2/CyclinE2 Enzymatic Activity Assay (TR-FRET). In kind it is biochemical. Particulars: ATP 1 mM final, read-out: CDK2_E1 IC50. The procedure, abridged:
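Recombinant insect-cell CDK2/Cyclin E2 (1 nM) phosphorylated ULight-4E-BP1 (50 nM) with 1 mM ATP in HEPES pH 7.4 buffer, after 20 min compound preincubation; MgCl2 (10 mM) started the 45 min reaction at 37° C. Europium anti-phospho-4E-BP1 TR-FRET read; 9-dose IC50 by 4-parameter fit.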
(In general: TR-FRET usually uses a lanthanide donor and a delayed reading to cut background.)

The target of the next assay is T2, CDK4/Cyclin D1 (Homo sapiens, UniProt P11802).
T2 construct: purchased ProQinase; host or cells: insect cell
T2 sequence (P11802 whole entry): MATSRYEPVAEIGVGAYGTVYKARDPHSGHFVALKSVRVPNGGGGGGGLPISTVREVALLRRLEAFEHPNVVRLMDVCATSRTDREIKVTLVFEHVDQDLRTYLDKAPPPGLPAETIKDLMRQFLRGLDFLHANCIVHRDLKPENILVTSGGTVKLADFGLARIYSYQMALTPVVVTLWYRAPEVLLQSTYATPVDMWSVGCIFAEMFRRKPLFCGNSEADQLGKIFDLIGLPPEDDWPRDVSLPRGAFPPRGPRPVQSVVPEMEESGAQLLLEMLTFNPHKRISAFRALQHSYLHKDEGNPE
T2 sequence (P24385 whole entry partner): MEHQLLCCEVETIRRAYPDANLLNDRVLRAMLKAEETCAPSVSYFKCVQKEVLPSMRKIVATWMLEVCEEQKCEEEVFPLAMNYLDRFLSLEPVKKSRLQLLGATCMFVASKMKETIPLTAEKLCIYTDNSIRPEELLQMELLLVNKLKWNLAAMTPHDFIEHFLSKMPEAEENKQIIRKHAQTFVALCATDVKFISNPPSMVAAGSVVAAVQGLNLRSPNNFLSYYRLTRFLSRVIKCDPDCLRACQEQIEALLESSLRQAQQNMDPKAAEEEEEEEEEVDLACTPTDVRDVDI
Put plainly: CDK4/CyclinD1 Enzymatic Activity Assay (TR-FRET). In kind it is biochemical. The settings on record: ATP 2 mM final, read-out: CDK4_D1 IC50. On the procedure: CDK4/CyclinD1 Enzymatic Activity Assay
The inhibitory activity of compounds was evaluated in vitro using TR-FRET assay with white 384-well low volume microplate (Greiner Bio-One). CDK4/Cyclin D1 catalyzed phosphorylation of peptide in the presence and absence of compounds was measured and used in IC50 determination. Recombinant protein complex CDK4/Cyclin D1, expressed from insect cell, was purchased from ProQinase. Testing compounds were dissolved in DMSO at 1 mM and tested in 9-dose IC50 mode. The reaction mixture was prepared by mixing CDK4/CyclinD1 (1 nM final), ULight-4E-BP1 (100 nM final, Perkinelmer, TRF0128-D), and ATP (2 mM final) in assay buffer (20 mM of HEPES pH 7.4, 1 mM of EGTA, 0.05% BSA, 0.005% Tween 20, and 1 mM TCEP). The compound of interest in DMSO was added to each well in 3-fold serial dilution by the dispenser (TECAN D300E) to make a 9.9 μL of reaction mixture. After 20 minutes preincubation at room temperature, 0.1 μL MgCl2 (10 mM final) was added to initiate the reaction. Following a 45-minute incubation at 37° C., the reaction was stopped by addition of 2 μL of quenching buffer consisting of Lance detection buffer (Perkinelmer CR97-100C), LANCE Ultra Europium-anti-P-4E-BP1 (Perkinelmer, TRF0216-D), EDTA, and incubated at room temperature for additional 60 minutes in dark. The reaction signal was measured by Envision multimode plate reader (PerkinElmer, 2102-0010). IC50 values were determined by fitting the data to the standard 4 parameters with Hill Slope using GraphPad Prism software.

What is called IC50 is the concentration that inhibits the measured activity by half. `Cc1sc(-c2nc(NC3CCN(S(=O)(=O)c4cn(C)cn4)CC3)ncc2C(F)(F)F)cc1C#N` [Example 1, 2-Methyl-5-[2-[[1-(1-methylimidazol-4-yl)sulfonylpiperidin-4-yl]amino]-5-(trifluoromethyl)pyrimidin-4-yl]thiophene-3-carbonitrile]: the IC50 in the assay with OVCAR3 p-RB, at CDK2/Cyclin E2 and on CDK4/Cyclin D1 was at most 100 nM each time.
Take `Cc1cnc(-c2nc(NC3CCN(S(=O)(=O)c4cnn(C)c4)CC3)ncc2C(F)(F)F)s1` [Example 2, N-(1-((1-methyl-1H-pyrazol-4-yl)sulfonyl)piperidin-4-yl)-4-(5-methylthiazol-2-yl)-5-(trifluoromethyl)pyrimidin-2-amine]: the IC50 with OVCAR3 p-RB, on CDK2/Cyclin E2 and at CDK4/Cyclin D1 was at most 100 nM throughout.
On to `Cn1cnc(S(=O)(=O)N2CCC(Nc3ncc(C(F)(F)F)c(-c4ncc(CC(C)(C)O)s4)n3)CC2)c1` [Example 3, 2-Methyl-1-(2-(2-((1-((1-methyl-1H-imidazol-4-yl)sulfonyl)piperidin-4-yl)amino)-5-(trifluoromethyl)pyrimidin-4-yl)thiazol-5-yl)propan-2-ol], for which the 50% inhibitory concentration (IC50) in the assay on OVCAR3 p-RB, on CDK2/Cyclin E2 and at CDK4/Cyclin D1 was at most 100 nM each time.
Regarding `Cc1sc(-c2nc(N[C@@H]3CCN(S(=O)(=O)c4cnn(C)c4)C[C@H]3F)ncc2C(F)(F)F)cc1C#N` [Example 4, 5-(2-(((3R,4R)-3-fluoro-1-((1-methyl-1H-pyrazol-4-yl)sulfonyl)piperidin-4-yl)amino)-5-(trifluoromethyl)pyrimidin-4-yl)-2-methylthiophene-3-carbonitrile], the IC50 was 100 to 500 nM in the assay on OVCAR3 p-RB, at most 100 nM at CDK2/Cyclin E2 and at most 100 nM on CDK4/Cyclin D1.
In the case of `Cc1sc(-c2nc(N[C@@H]3CCN(S(=O)(=O)c4cn(C)cn4)C[C@H]3F)ncc2C(F)(F)F)cc1C#N` [Example 5, 5-(2-(((3R,4R)-3-fluoro-1-((1-methyl-1H-imidazol-4-yl)sulfonyl)piperidin-4-yl)amino)-5-(trifluoromethyl)pyrimidin-4-yl)-2-methylthiophene-3-carbonitrile], the concentration for half-maximal inhibition (IC50) in the assay with OVCAR3 p-RB was 100 to 500 nM; on CDK2/Cyclin E2, at most 100 nM; on CDK4/Cyclin D1 it was at most 100 nM.
Regarding `CS(=O)(=O)N1CC[C@@H](Nc2ncc(C(F)(F)F)c(-c3cc(C(N)=O)cs3)n2)[C@H](F)C1` [Example 6, 5-(2-(((3R,4R)-3-fluoro-1-(methylsulfonyl)piperidin-4-yl)amino)-5-(trifluoromethyl)pyrimidin-4-yl)thiophene-3-carboxamide], the IC50 in the assay with OVCAR3 p-RB, on CDK2/Cyclin E2 and on CDK4/Cyclin D1 was at most 100 nM each time.
As for `CS(=O)(=O)N1CC[C@H](Nc2ncc(C(F)(F)F)c(-c3cc(C(N)=O)cs3)n2)[C@H](F)C1` [Example 7, 5-(2-(((3R,4S)-3-fluoro-1-(methylsulfonyl)piperidin-4-yl)amino)-5-(trifluoromethyl)pyrimidin-4-yl)thiophene-3-carboxamide], the half-maximal inhibitory concentration (IC50) in the assay on OVCAR3 p-RB, on CDK2/Cyclin E2 and at CDK4/Cyclin D1 was at most 100 nM each time.
Regarding `Cc1sc(-c2nc(N[C@@H]3CCN(S(C)(=O)=O)C[C@H]3F)ncc2C(F)(F)F)cc1C(N)=O` [Example 8, 5-(2-(((3R,4R)-3-fluoro-1-(methylsulfonyl)piperidin-4-yl)amino)-5-(trifluoromethyl)pyrimidin-4-yl)-2-methylthiophene-3-carboxamide], the half-maximal inhibitory concentration (IC50) in the assay with OVCAR3 p-RB, on CDK2/Cyclin E2 and at CDK4/Cyclin D1 was at most 100 nM each time.
Turning to `Cc1sc(-c2nc(N[C@H]3CCN(S(C)(=O)=O)C[C@H]3F)ncc2C(F)(F)F)cc1C(N)=O` [Example 9, 5-(2-(((3R,4S)-3-fluoro-1-(methylsulfonyl)piperidin-4-yl)amino)-5-(trifluoromethyl)pyrimidin-4-yl)-2-methylthiophene-3-carboxamide], the IC50 in the assay with OVCAR3 p-RB, on CDK2/Cyclin E2 and at CDK4/Cyclin D1 was at most 100 nM in each case.
Consider `C[C@@H]1CN(S(C)(=O)=O)CC[C@@H]1Nc1ncc(C(F)(F)F)c(-c2cc(C(N)=O)cs2)n1` [Example 10, 5-(2-(((3R,4S)-3-methyl-1-(methylsulfonyl)piperidin-4-yl)amino)-5-(trifluoromethyl)pyrimidin-4-yl)thiophene-3-carboxamide], for which the results for the concentration for half-maximal inhibition (IC50) in the assay with OVCAR3 p-RB, at CDK2/Cyclin E2 and at CDK4/Cyclin D1 were 100 to 500 nM, at most 100 nM and 100 to 500 nM, respectively.
In the case of `Cn1cc(S(=O)(=O)N2CC[C@H](Nc3ncc(C(F)(F)F)c(-c4cc(C(N)=O)cs4)n3)[C@H](F)C2)cn1` [Example 11, 5-(2-(((3R,4S)-3-fluoro-1-((1-methyl-1H-pyrazol-4-yl)sulfonyl)piperidin-4-yl)amino)-5-(trifluoromethyl)pyrimidin-4-yl)thiophene-3-carboxamide], the IC50 in the assay with OVCAR3 p-RB, on CDK2/Cyclin E2 and on CDK4/Cyclin D1 was at most 100 nM each time.
`Cn1cnc(S(=O)(=O)N2CC[C@H](Nc3ncc(C(F)(F)F)c(-c4cc(C(N)=O)cs4)n3)[C@H](F)C2)c1` [Example 12, 5-(2-(((3R,4S)-3-fluoro-1-((1-methyl-1H-imidazol-4-yl)sulfonyl)piperidin-4-yl)amino)-5-(trifluoromethyl)pyrimidin-4-yl)thiophene-3-carboxamide]: the half-inhibitory concentration (IC50) in the assay on OVCAR3 p-RB, at CDK2/Cyclin E2 and at CDK4/Cyclin D1 was at most 100 nM each time.
Consider `Cn1cc(S(=O)(=O)N2CC[C@@H](Nc3ncc(C(F)(F)F)c(-c4cc(C(N)=O)cs4)n3)[C@H](F)C2)cn1` [Example 13, 5-(2-(((3R,4R)-3-fluoro-1-((1-methyl-1H-pyrazol-4-yl)sulfonyl)piperidin-4-yl)amino)-5-(trifluoromethyl)pyrimidin-4-yl)thiophene-3-carboxamide], for which the IC50 in the assay on OVCAR3 p-RB, at CDK2/Cyclin E2 and on CDK4/Cyclin D1 was at most 100 nM throughout.
As to `Cn1cnc(S(=O)(=O)N2CC[C@@H](Nc3ncc(C(F)(F)F)c(-c4cc(C(N)=O)cs4)n3)[C@H](F)C2)c1` [Example 14, 5-(2-(((3R,4R)-3-fluoro-1-((1-methyl-1H-imidazol-4-yl)sulfonyl)piperidin-4-yl)amino)-5-(trifluoromethyl)pyrimidin-4-yl)thiophene-3-carboxamide], the 50% inhibitory concentration (IC50) in the assay on OVCAR3 p-RB was 100 to 500 nM; on CDK2/Cyclin E2, at most 100 nM; on CDK4/Cyclin D1, at most 100 nM.
Regarding `Cc1sc(-c2nc(N[C@H]3CCN(S(=O)(=O)c4cnn(C)c4)C[C@H]3F)ncc2C(F)(F)F)cc1C(N)=O` [Example 15, 5-(2-(((3R,4S)-3-fluoro-1-((1-methyl-1H-pyrazol-4-yl)sulfonyl)piperidin-4-yl)amino)-5-(trifluoromethyl)pyrimidin-4-yl)-2-methylthiophene-3-carboxamide], the concentration for half-maximal inhibition (IC50) with OVCAR3 p-RB, at CDK2/Cyclin E2 and at CDK4/Cyclin D1 was at most 100 nM throughout.
For `Cc1sc(-c2nc(N[C@H]3CCN(S(=O)(=O)c4cn(C)cn4)C[C@H]3F)ncc2C(F)(F)F)cc1C(N)=O` [Example 16, 5-(2-(((3R,4S)-3-fluoro-1-((1-methyl-1H-imidazol-4-yl)sulfonyl)piperidin-4-yl)amino)-5-(trifluoromethyl)pyrimidin-4-yl)-2-methylthiophene-3-carboxamide], the IC50 in the assay on OVCAR3 p-RB, at CDK2/Cyclin E2 and at CDK4/Cyclin D1 was at most 100 nM in each case.
Regarding `Cc1sc(-c2nc(N[C@@H]3CCN(S(=O)(=O)c4cnn(C)c4)C[C@H]3F)ncc2C(F)(F)F)cc1C(N)=O` [Example 17, 5-(2-(((3R,4R)-3-fluoro-1-((1-methyl-1H-pyrazol-4-yl)sulfonyl)piperidin-4-yl)amino)-5-(trifluoromethyl)pyrimidin-4-yl)-2-methylthiophene-3-carboxamide], the 50% inhibitory concentration (IC50) in the assay on OVCAR3 p-RB, on CDK2/Cyclin E2 and at CDK4/Cyclin D1 was at most 100 nM throughout.
With `Cc1sc(-c2nc(N[C@@H]3CCN(S(=O)(=O)c4cn(C)cn4)C[C@H]3F)ncc2C(F)(F)F)cc1C(N)=O` [Example 18, 5-(2-(((3R,4R)-3-fluoro-1-((1-methyl-1H-imidazol-4-yl)sulfonyl)piperidin-4-yl)amino)-5-(trifluoromethyl)pyrimidin-4-yl)-2-methylthiophene-3-carboxamide], the IC50 with OVCAR3 p-RB, at CDK2/Cyclin E2 and on CDK4/Cyclin D1 was at most 100 nM in each case.

The record behind these values is US20240150340A1, “CDK Inhibitors And Their Use As Pharmaceuticals” (Prelude Therapeutics Incorporated, priority 2022, published 2024).
